# Data reported in US20250049795A1, “USE OF 5-(2-((5-(4-(DIMETHYLAMINO)PIPERIDIN-1-YL)PYRIDIN-2-YL)AMINO)-5-FLUOROPYRIMIDIN-4-YL)-N,4-DIMETHYLTHIAZOL-2-AMINE IN COMBINATION THERAPIES FOR CANCER” (Aucentra Therapeutics Pty Ltd, priority 2022, published 2025).
# Entries after “also recorded” stand apart in the source; their conditions may differ.
# Experiments:
# [1] = biological target: T1, CDK4/cyclin D1 (Homo sapiens, UniProt P11802); assay: CDK inhibition, kinase assay (radiometric / ADP Glo); type: biochemical
# T1 construct: purchased Eurofins Pharma Discovery or Reaction Biology Corporation (radiometric service)
# Protocol: Serial dilutions of 1:3 were prepared for test compounds for 10 concentrations (from 10 μM to 0.5 nM). […] Positive and negative controls were performed in the presence and absence of CDK kinases, respectively. Half-maximal inhibition (IC50) values were calculated using a 4-parameter logistic non-linear regression model with Graphpad prism (Version 6.0). Apparent inhibition constants (Ki) values were calculated from Km (ATP) and IC50 values for the respective kinases.
# [2] = test system: other members of CDK family; assay: Kinase profiling of CDK family; type: biochemical
# Protocol: Eurofins Pharma Discovery or Reaction Biology Corporation Kinase Profiler services were used to measure inhibition of CDKs and other kinases by radiometric assay (RIA). Inhibition of CDK4/cyclin D1, CDK6/cyclin D3 and CDK9/cyclin T1 were also determined using ADP Glo Kinase assays (Promega Corporation, Madison WI, United States of America). Briefly, the kinase reaction for CDK4/cyclin D1 and CDK6/cyclin D3 was performed with kinase reaction buffer ([…] Tris base pH 7.5, 20 mM MgCl2, 0.4 mM DTT), 0.1 mg/ml BSA and RB-CTF substrate (retinoblastoma protein1 C-terminal fraction). For CDK9/cyclin T1, the kinase reaction was performed with standard assay buffer and Kinase Dilution Buffer and RBER-IRStide substrate. Serial dilutions of 1:3 were prepared for test compounds for 10 concentrations (from 10 μM to 0.5 nM). The kinase reactions were started by addition of ATP, incubated for 40 min at […] and then stopped by adding 10 μL of ADP Glo reagent. […] Luminescence was measured using an EnVision Multilabel plate reader (PerkinElmer, Buckinghamshire, United Kingdom). […] Half-maximal inhibition (IC50) values were calculated using a 4-parameter logistic non-linear regression model with Graphpad prism (Version 6.0). Apparent inhibition constants (Ki) values were calculated from Km (ATP) and IC50 values for the respective kinases.
# [3] = test system: CT26.WT colorectal cancer cells; assay: In vivo anti-tumour activity in mice with a colorectal cancer syngeneic allograft; parameters: species or system mouse
# Protocol: Murine triple-negative breast cancer EMT6 tumour cells (ATCC® CRL-2755™) and colorectal cancer CT26.WT cells (ATCC® CRL-2638™) were cultured and expanded in RPMI-1640 medium (Roswell Park Memorial Institute Medium-1640) with L-glutamine and sodium bicarbonate (Sigma-Aldrich, Macquarie Park, NSW, Australia) supplemented with 10% heat-inactivated foetal bovine serum (FBS). Cells were cultured in an incubator at 5% CO2 37° C.
# (§1) CT26.WT colorectal cancer cells were harvested and re-suspended in a 1:1 mixture of Matrigel™ (#354234; Corning Life Sciences, Corning, NY, United States of America) and serum-free RPMI-1640 medium, and thereafter injected sub-cutaneously (sc) (7×10^5 cells in a volume of 100 μL) into the right flank of each female BALB/c mouse. After the tumour volume reached ˜100 mm^3, the mice were randomised into two groups (n=8/group) and given vehicle (1% CMC in water), compound 1 (150 mg/kg) once daily by oral administration (QD PO), Anti-PD1 (RMP1-14-derived mouse monoclonal antibody, Assay Matrix, Australia; […]) by intraperitoneal (ip) administration, or compound 1 plus anti-PD-1 antibody (FIG. 1).
# [4] = test system: T cell populations (CD3+, CD8+); assay: Flow cytometry study of immune profiles in CT26.WT syngeneic mouse model; type: in vivo; conditions: day 14 of dosing, 3 mice of each group
# Text: FIG. 2 provides further graphical results showing the in vivo anti-tumour efficacy of compound 1 in the CT26.WT syngeneic mouse model through activation of immunity. In the experiment, on day 14 of dosing, 3 mice of each group were sacrificed for flow cytometry study of immune profiles.
# as §1, with “1). Compound 1 achieved significant tumour growth inhibition with a T/C=24% when used alone, and T/C=14% when used in the combination with the anti-PD-1 antibody, as measured on day 14 of dosing (FIG. 1).” for “1).”
# T1 sequence (P11802 whole entry): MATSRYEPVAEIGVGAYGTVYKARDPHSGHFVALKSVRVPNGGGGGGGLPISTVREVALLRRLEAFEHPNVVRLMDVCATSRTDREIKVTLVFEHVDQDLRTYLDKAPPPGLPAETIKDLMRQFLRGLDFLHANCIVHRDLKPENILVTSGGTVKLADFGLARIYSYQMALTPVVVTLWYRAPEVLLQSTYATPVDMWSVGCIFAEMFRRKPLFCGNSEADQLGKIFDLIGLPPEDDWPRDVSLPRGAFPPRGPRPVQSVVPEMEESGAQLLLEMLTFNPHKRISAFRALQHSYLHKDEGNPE
# T1 sequence (P24385 whole entry partner): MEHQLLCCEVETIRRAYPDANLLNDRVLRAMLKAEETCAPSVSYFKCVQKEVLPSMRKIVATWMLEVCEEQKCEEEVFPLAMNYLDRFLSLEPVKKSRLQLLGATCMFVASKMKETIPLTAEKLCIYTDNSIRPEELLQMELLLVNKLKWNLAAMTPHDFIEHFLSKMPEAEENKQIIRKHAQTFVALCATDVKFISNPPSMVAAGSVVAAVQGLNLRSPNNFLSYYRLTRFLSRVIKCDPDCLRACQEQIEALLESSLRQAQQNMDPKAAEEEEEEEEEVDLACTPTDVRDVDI
compound,measurement,setting,value
"CNc1nc(C)c(-c2nc(Nc3ccc(N4CCC(N(C)C)CC4)cn3)ncc2F)s1 [Compound 1, 5-(2-((5-(4-(dimethylamino)piperidin-1-yl)pyridin-2-yl)amino)-5-fluoropyrimidin-4-yl)-N,4-dimethylthiazol-2-amine]",selectivity for CDK4 over CDK6,[1],140 fold
same,activity against other members of CDK family,[2],no activity
same,extended survival of animals,"[3]; BALB/c mice, CT26.WT allograft, compound 1 150 mg/kg QD PO, anti-PD1 ip, p<0.001",60%
same,survival of the mice (in words),"[3]; BALB/c mice, CT26.WT allograft, p<0.001",significantly prolong the survival
same,tumor volume in treatment vs control ratio (T/C),"[3]; female BALB/c mice, sc CT26.WT allograft, day 14 of dosing, compound 1 150 mg/kg QD PO, Anti-PD1 150 g/mouse/wk ip",24%
same,"T cell populations (% CD3+ and % CD8+) in spleen, blood and tumour samples",[4],increased T cell populations; also recorded: increased level
